# Reference: US10160747B2, “Compounds and methods for kinase modulation, and indications therefor” (Plexxikon Inc., priority 2016, dated 2018)
# Legend:
# FLT3-D835Y = target: T1, FLT3-D835Y (Homo sapiens, UniProt P36888, D835Y); assay: FLT3-D835Y recombinant enzyme kinase assay (AlphaScreen); format: biochemical; settings: 8 pt, GMean
# T1 construct: purchased Invitrogen PV3967
# T1 sequence (P36888 27-993 D835Y): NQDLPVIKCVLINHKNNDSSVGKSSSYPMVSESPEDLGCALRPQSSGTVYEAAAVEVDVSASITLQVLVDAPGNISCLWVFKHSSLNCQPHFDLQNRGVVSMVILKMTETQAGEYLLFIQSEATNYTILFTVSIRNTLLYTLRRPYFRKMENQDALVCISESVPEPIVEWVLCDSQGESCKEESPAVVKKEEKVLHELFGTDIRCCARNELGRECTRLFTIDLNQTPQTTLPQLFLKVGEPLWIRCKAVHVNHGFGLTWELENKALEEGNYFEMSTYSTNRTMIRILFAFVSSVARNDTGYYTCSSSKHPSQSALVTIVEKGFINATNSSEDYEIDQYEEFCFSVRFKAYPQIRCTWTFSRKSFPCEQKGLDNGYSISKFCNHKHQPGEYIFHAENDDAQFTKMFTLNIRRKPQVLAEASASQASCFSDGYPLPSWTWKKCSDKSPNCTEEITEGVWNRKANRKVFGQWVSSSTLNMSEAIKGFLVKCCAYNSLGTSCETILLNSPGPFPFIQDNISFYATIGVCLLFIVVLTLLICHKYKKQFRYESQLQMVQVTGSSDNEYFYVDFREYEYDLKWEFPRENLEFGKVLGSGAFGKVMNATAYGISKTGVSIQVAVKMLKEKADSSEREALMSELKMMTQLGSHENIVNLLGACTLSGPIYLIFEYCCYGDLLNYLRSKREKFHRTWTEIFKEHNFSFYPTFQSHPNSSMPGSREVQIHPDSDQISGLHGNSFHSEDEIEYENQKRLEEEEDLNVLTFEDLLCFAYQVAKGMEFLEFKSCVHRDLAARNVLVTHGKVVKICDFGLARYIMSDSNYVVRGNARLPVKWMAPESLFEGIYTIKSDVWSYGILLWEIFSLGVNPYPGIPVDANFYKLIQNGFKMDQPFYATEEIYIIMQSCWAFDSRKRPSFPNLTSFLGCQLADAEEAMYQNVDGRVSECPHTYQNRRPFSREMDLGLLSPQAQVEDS
# Protocol: In order to determine the effect of compounds on FLT3 catalytic activity, kinase assays using recombinant enzymes and AlphaScreen® technology have been established. The catalytic activity of c-kit activity was also measured to determine selectivity of the compounds. When the kinases are catalytically active, they phosphorylate a biotinylated peptide substrate on tyrosine residues. Using AlphaScreen® technology, the ability of the compounds to affect the catalytic activity of the kinases can be measured quantitatively. The peptide substrate is immobilized by the AlphaScreen® Streptavidin Donor beads and, upon phosphorylation by a tyrosine kinase, can bind to AlphaScreen® Anti-Phosphotyrosine (PY20) Acceptor beads. Upon excitation of these beads with laser light at 680 nm, singlet oxygen is produced. This singlet oxygen is rapidly quenched, unless the AlphaScreen® Anti-Phosphotyrosine (PY20) Acceptor beads are in close proximity, in which case a proximity signal can be measured at 580 nm. In the presence of catalytic activity, there is a very strong proximity signal. Selective kinase inhibitors affect a decrease in this proximity signal through a decrease in tyrosine phosphorylation of the peptide substrate.
# The assay was performed as summarized below.
# Poly (Glu4-Tyr) Peptide, biotin conjugate [Biotin-GG(EEEEY)10EE] (SEQ ID NO: 4)
# Final concentration=30 nM
# Adenosine Triphosphate (ATP)
# Final concentration for IC50 determination=10 μM (FLT3-D835Y or FLT3-ITD) or 100 μM (c-KIT)
# AlphaScreen® Phosphotyrosine (PY20) Assay Kit
# Final concentration=10 μg/mL
# Dilute compounds in DMSO to 20× final concentration.
# Add 1 μL of compound to each well of 384 well reaction plate (Perkin Elmer #6005359).
# Mix enzyme and Poly (Glu4-Tyr) Peptide substrate at 1.33× final concentration in assay buffer.
# Mix ATP at 5× final concentration in assay buffer.
# Add 15 μL enzyme/substrate mixture to the reaction plate.
# Add 4 μL of ATP to the reaction plate.
# Mix Streptavidin Donor beads at 6× final concentration in Stop/Detection buffer.
# Add 5 μL Streptavidin Donor beads to the reaction plate. Centrifuge 1 minute, shake to mix, and incubate at room temperature for 20 minutes.
# Mix Anti-Phosphotyrosine (PY20) Acceptor beads at 6× final concentration in Stop/Detection buffer.
# Add 5 μL Anti-Phosphotyrosine (PY20) beads to the reaction plate.
# Centrifuge 1 minute, shake to mix, and incubate at room temperature for 60 minutes.
# Read plate on Wallac EnVision™ 2103 Multilabel Reader.
# [1] = test system: MOLM-14 D835Y (endogenous FLT3 ITD and transfected FLT3 D835Y); assay: MOLM-14 D835Y cell proliferation assay (CellTiter-Glo); format: cell-based; settings: Homo sapiens, MOLM-14, 72 h; 3 d growth, GMean
# Summary of the method: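 MOLM-14 derivatives carrying D835Y or F691L, selected under escalating AC220, were seeded at 1×10^4 cells/well and exposed to an 8-point 1:3 compound series (1 to 0.00046 μM, 0.2% DMSO final) for three days at 37° C., 5% CO2. CellTiter-Glo luminescence (ATP content) versus concentration gave IC50.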
SMILES,IC50 (FLT3-D835Y) [µM],IC50 [1] [µM]
"Cc1n[nH]c2ncc(-c3ccc(CC(=O)Nc4cncc(C(F)(F)F)c4)cc3F)cc12 [Compound P-0177, 2-[3-fluoro-4-(3-methyl-1H-pyrazolo[3,4-b]pyridin-5-yl)phenyl]-N-[5-(trifluoromethyl)-3-pyridyl]acetamide]",0.0001 to 10,0.0001 to 10
"O=C(Cc1ccc(-c2cnc3[nH]c(-c4ccc(N5CCOCC5)nc4)cc3c2)c(F)c1)Nc1cncc(C(F)(F)F)c1 [Compound P-0198, 2-[3-fluoro-4-[2-(6-morpholino-3-pyridyl)-1H-pyrrolo[2,3-b]pyridin-5-yl]phenyl]-N-[5-(trifluoromethyl)-3-pyridyl]acetamide]",0.0001 to 10,0.0001 to 10
"CCn1cc(Nc2ncc(-c3ccc(CC(=O)Nc4cncc(C(F)(F)F)c4)cc3)cn2)cn1 [Compound P-0166, 2-[4-[2-[(1-ethylpyrazol-4-yl)amino]pyrimidin-5-yl]phenyl]-N-[5-(trifluoromethyl)-3-pyridyl]acetamide]",0.0001 to 10,0.0001 to 10
"O=C(Cc1ccc(-c2cnc3[nH]c(-c4ccc(N5CCOCC5)nc4)cc3c2)cn1)Nc1ccnc(C(F)(F)F)c1 [Compound P-0183, 2-[5-[2-(6-morpholino-3-pyridyl)-1H-pyrrolo[2,3-b]pyridin-5-yl]-2-pyridyl]-N-[2-(trifluoromethyl)-4-pyridyl]acetamide]",0.0001 to 10,0.0001 to 10
"COc1ncc(NC(=O)Cc2cc(F)c(-c3cnc4[nH]nc(C)c4c3)cc2F)cc1C(F)(F)F [Compound P-0176, 2-[2,5-difluoro-4-(3-methyl-1H-pyrazolo[3,4-b]pyridin-5-yl)phenyl]-N-[6-methoxy-5-(trifluoromethyl)-3-pyridyl]acetamide]",0.0001 to 10,0.0001 to 10
"N#Cc1cc(-c2cc3cc(-c4ccc(CC(=O)Nc5cncc(C(F)(F)F)c5)cc4F)cnc3[nH]2)ccn1 [Compound P-0199, 2-[4-[2-(2-cyano-4-pyridyl)-1H-pyrrolo[2,3-b]pyridin-5-yl]-3-fluoro-phenyl]-N-[5-(trifluoromethyl)-3-pyridyl]acetamide]",–,0.0001 to 10
"COc1ccc(-c2cc3cc(-c4ccc(CC(=O)Nc5cc(C(F)(F)F)ccn5)cc4F)cnc3[nH]2)cn1 [Compound P-0191, 2-[3-fluoro-4-[2-(6-methoxy-3-pyridyl)-1H-pyrrolo[2,3-b]pyridin-5-yl]phenyl]-N-[4-(trifluoromethyl)-2-pyridyl]acetamide]",–,0.0001 to 10
"Cc1cc(-c2cnc3[nH]c(-c4ccccc4)cc3c2)ccc1CC(=O)Nc1cccc(C(F)(F)F)c1 [Compound P-0001, 2-[2-methyl-4-(2-phenyl-1H-pyrrolo[2,3-b]pyridin-5-yl)phenyl]-N-[3-(trifluoromethyl)phenyl]acetamide]",–,0.0001 to 10
"COc1cc(NC(=O)Cc2ccc(-c3cnc(Nc4cnn(C)c4)nc3)cc2)ccn1 [Compound P-0153, N-(2-methoxy-4-pyridyl)-2-[4-[2-[(1-methylpyrazol-4-yl)amino]pyrimidin-5-yl]phenyl]acetamide]",–,0.0001 to 10
"COc1ccccc1CNC(=O)Cc1ccc(-c2cnc(Nc3cnn(C)c3)nc2)cc1 [Compound P-0160, N-[(2-methoxyphenyl)methyl]-2-[4-[2-[(1-methylpyrazol-4-yl)amino]pyrimidin-5-yl]phenyl]acetamide]",–,0.0001 to 10
"Cn1cc(Nc2ncc(-c3ccc(CC(=O)NCc4ncccc4C(F)(F)F)cc3)cn2)cn1 [Compound P-0159, 2-[4-[2-[(1-methylpyrazol-4-yl)amino]pyrimidin-5-yl]phenyl]-N-[[3-(trifluoromethyl)-2-pyridyl]methyl]acetamide]",–,0.0001 to 10

# Results, then the compound that gave them:
IC50 (FLT3-D835Y) [µM],IC50 [1] [µM],SMILES
0.0001 to 10,0.0001 to 10,"Cn1cc(Nc2ncc(-c3ccc(CC(=O)Nc4ccnc(C5CC5)c4)cc3)cn2)cn1 [Compound P-0097, N-(2-cyclopropyl-4-pyridyl)-2-[4-[2-[(1-methylpyrazol-4-yl)amino]pyrimidin-5-yl]phenyl]acetamide]"
0.0001 to 10,0.0001 to 10,"Cn1cc(Nc2ncc(-c3ccc(CC(=O)Nc4ccnc(C(F)(F)F)n4)cc3)cn2)cn1 [Compound P-0137, 2-[4-[2-[(1-methylpyrazol-4-yl)amino]pyrimidin-5-yl]phenyl]-N-[2-(trifluoromethyl)pyrimidin-4-yl]acetamide]"
0.0001 to 10,0.0001 to 10,"Cn1cc(Nc2ncc(-c3ccc(CC(=O)Nc4ccc(C(C)(C)C#N)nc4)c(F)c3)cn2)cn1 [Compound P-0108, N-[6-(1-cyano-1-methyl-ethyl)-3-pyridyl]-2-[2-fluoro-4-[2-[(1-methylpyrazol-4-yl)amino]pyrimidin-5-yl]phenyl]acetamide]"
0.0001 to 10,0.0001 to 10,"COCCn1cc(Nc2ncc(-c3ccc(CC(=O)Nc4cnc(C)c(C(F)(F)F)c4)cc3)cn2)cn1 [Compound P-0179, 2-[4-[2-[[1-(2-methoxyethyl)pyrazol-4-yl]amino]pyrimidin-5-yl]phenyl]-N-[6-methyl-5-(trifluoromethyl)-3-pyridyl]acetamide]"
0.0001 to 10,0.0001 to 10,"Cn1cc(Nc2ncc(-c3ccc(CC(=O)Nc4cncc(C(F)(F)F)c4)cc3)cn2)cn1 [Compound P-0136, 2-[4-[2-[(1-methylpyrazol-4-yl)amino]pyrimidin-5-yl]phenyl]-N-[5-(trifluoromethyl)-3-pyridyl]acetamide]"
0.0001 to 10,0.0001 to 10,"Cn1cc(Nc2ncc(-c3ccc(CC(=O)Nc4ccc(C(C)(C)C#N)nc4)cc3)cn2)cn1 [Compound P-0146, N-[6-(1-cyano-1-methyl-ethyl)-3-pyridyl]-2-[4-[2-[(1-methylpyrazol-4-yl)amino]pyrimidin-5-yl]phenyl]acetamide]"
0.0001 to 10,0.0001 to 10,"CCn1cc(Nc2ncc(-c3ccc(CC(=O)Nc4cnc(Cl)c(C(F)(F)F)c4)cc3)cn2)cn1 [Compound P-0165, N-[6-chloro-5-(trifluoromethyl)-3-pyridyl]-2-[4-[2-[(1-ethylpyrazol-4-yl)amino]pyrimidin-5-yl]phenyl]acetamide]"
0.0001 to 10,0.0001 to 10,"Cc1ncc(NC(=O)Cc2ccc(-c3cnc(Nc4cn(C)cn4)nc3)cc2F)cc1C(F)(F)F [Compound P-0099, 2-[2-fluoro-4-[2-[(1-methylimidazol-4-yl)amino]pyrimidin-5-yl]phenyl]-N-[6-methyl-5-(trifluoromethyl)-3-pyridyl]acetamide]"
–,0.0001 to 10,"Cn1cc(Nc2ncc(-c3ccc(CC(=O)NCc4cccnc4)cc3)cn2)cn1 [Compound P-0132, 2-[4-[2-[(1-methylpyrazol-4-yl)amino]pyrimidin-5-yl]phenyl]-N-(3-pyridylmethyl)acetamide]"
